Here are results for 1 compound from patent publication EP2093218A1, “Arylalkyl substituted imidazolidinones” (Fariello, Ruggero, priority 2008, dated 2009).

In one test the test system is mice. As to the kind of experiment: Maximal Electroshock Test (MES). Type of test: in vivo. The conditions noted are these: for MES % Protection from Tonic Extension: 20 mice; for Time of Straightening Reflex Loss: mean of 20 mice. How it is done:
MES seizures were induced by electroconvulsometer (ECT Unit Ugo Basile, Italy). Mice received an electroshock (50 mA at 60 Hz for 0.2 s duration) through intra-corneal electrodes. This current intensity elicited complete tonic extension of the hindlimbs in control mice. The stimulus was applied 30 min or 60 min after intraperitoneal (i.p.) or oral (p.o.) administration of the test compound, respectively. To evaluate the drug effect on the seizure severity, time of Straightening Reflex Loss and the presence of tonic hindlimb extension were selected as the parameters.

A further test concerns PTZ-treated mice. Briefly: Chemically induced seizures (pentylenetetrazole, PTZ). Type of test: in vivo. The conditions noted are these: for % Protection on PTZ induced convulsions: PTZ 90 mg/kg i.p. 30 min after compound, 20 mice. How it is done:
Seizure-inducer pentylenetetrazole (PTZ) (90 mg/kg i.p.) was administered to mice 30 min after i.p. administration of the test compound.
Compound of Example 1 at the doses of 10 and 30 mg/kg i.p. was able to protect the animals from PTZ-induced convulsions. […]

Setting [1] is: 10 mg/kg i.p., stimulus 30 min after administration.
Where [2] appears, read: 30 mg kg^-1 p.o., stimulus 60 min after administration.

Marks after values point to notes of the source that are not given here.

As to `C[C@H]1C(=O)NC(C)(C)N1Cc1ccc(OCc2cccc(F)c2)cc1` [Example 1, (S)-(-)-1-[4-(3-Fluoro-benzyloxy)-benzyl]-2,2,5-trimethyl-imidazolidin-4-one], the “MES % Protection from Tonic Extension” value in the test on mice (setting [1]) was 50* %; in the test on mice (setting [2]), 30%. The “Time of Straightening Reflex Loss” value is on record as 66.8 ± 9.3 s with mice (setting [1]) and 56.8 ± 6.3 s in the test with mice (setting [2]). Besides, in the test with mice (either after i.p. (10 mg/kg) or oral (30 mg/kg) administration), the “anticonvulsant activity in MES test (in words)” value is reported as “significant anticonvulsant activity”. In addition, the “% Protection on PTZ induced convulsions” value is 0% in the test on PTZ-treated mice (3 mg/kg i.p.), 40% in the test with PTZ-treated mice (10 mg/kg i.p.) and 90% with PTZ-treated mice (30 mg/kg i.p.). Besides, the “protection from PTZ-induced convulsions (in words)” value in the test on PTZ-treated mice (highest dose (30 mg/kg i.p.)) is listed as “almost complete”.
